The target of data set [1] is T1, CB1 (Homo sapiens (Human), UniProt P21554). The data set is described as follows: Displacement of [3H]CP55940 in membranes of CHO-K1 cells over-expressing CB1.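 On all read-outs here: reported values are averages of 3-6 independent measurements.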 As to conditions: for Binding Selectivity using CP55940 Displacement: CB1 versus CB2; for Ki: read-out: Ki (nM) v. [3H]CP55940 at CB1, radioligand [3H]CP55940, CHO-K1 membranes. A general note: Displacement assays read how much labelled ligand stays bound in the presence of the test substance.
T1 sequence (P21554 whole entry): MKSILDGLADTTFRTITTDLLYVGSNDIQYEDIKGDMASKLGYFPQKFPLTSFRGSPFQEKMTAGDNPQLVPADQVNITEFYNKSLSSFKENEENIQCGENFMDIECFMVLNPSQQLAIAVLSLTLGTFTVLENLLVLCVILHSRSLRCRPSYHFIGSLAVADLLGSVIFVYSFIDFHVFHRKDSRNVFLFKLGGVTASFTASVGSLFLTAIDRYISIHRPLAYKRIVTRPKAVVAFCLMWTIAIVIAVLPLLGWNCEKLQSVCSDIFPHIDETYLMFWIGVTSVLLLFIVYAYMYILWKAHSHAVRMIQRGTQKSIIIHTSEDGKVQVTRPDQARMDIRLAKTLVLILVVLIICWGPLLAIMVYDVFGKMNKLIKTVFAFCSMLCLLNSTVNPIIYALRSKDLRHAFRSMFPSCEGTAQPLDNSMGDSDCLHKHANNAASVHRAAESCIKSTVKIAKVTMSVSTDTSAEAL
Experimental: Further characterization of select compounds was performed using radioligand displacement of [3H]1 and equilibrium dissociation constant (Ki) values were determined. Selectivity of these compounds at CB1 versus CB2 was also determined by obtaining Ki values at either receptor using displacement of [3H]CP55940 in membranes of CHO-K1 cells over-expressing either receptor. Data reported are average values from 3-6 measurements.
Selectivity against the CB2 receptor was determined by comparing the compound displacement of radiolabeled CP55940, which is a cannabinoid known to act as a full agonist at both CB1 and CB2 receptors.

The target in the next data set is CB2 (Homo sapiens (Human), UniProt P34972). The data set is described as follows: Displacement of [3H]CP55940 in membranes of CHO-K1 cells over-expressing CB2. It is filed as binding. As to conditions: radioligand [3H]CP55940, CHO-K1 membranes; read-out: Ki (nM) v. [3H]CP55940 at CB2.
Sequence of CB2 (P34972 whole entry): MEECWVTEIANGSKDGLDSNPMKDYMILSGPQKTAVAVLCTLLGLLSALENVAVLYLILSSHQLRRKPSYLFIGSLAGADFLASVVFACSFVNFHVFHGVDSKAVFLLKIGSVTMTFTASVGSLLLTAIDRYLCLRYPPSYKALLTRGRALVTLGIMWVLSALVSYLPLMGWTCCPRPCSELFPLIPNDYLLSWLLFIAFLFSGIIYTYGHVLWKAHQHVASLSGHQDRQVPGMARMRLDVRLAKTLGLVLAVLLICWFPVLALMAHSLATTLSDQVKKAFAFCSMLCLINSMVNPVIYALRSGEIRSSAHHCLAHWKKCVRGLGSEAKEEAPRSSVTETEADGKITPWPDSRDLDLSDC
The target of data set [2] is T1, CB1. The experiment in a line: Radioligand displacement of [3H]SR141716 at CB1. It is filed as binding. The note with it: radioligand [3H]SR141716; read-out: Ki (nM) v. [3H]SR141716 at CB1.
For data set [3], the target named is T1, CB1. The data set is described as follows: CB1 activated Gαq16-coupled intracellular calcium mobilization assay in CHO-K1 cells. It is filed as cell-based. As to conditions: apparent affinity (Ke).
For another data set, the system named is MDCK-MDR. The experiment in a line: MDCK-MDR transport (apical to basal). The class given is in vitro ADME.
Data set [4] is described as follows: Brain penetration / plasma and brain levels after oral dosing in SD rats. It is filed as in vivo, Sprague-Dawley (SD) rats. As to conditions: Sprague-Dawley, rat, oral 10 mg/kg. How it is done:
However, unlike otenabant, this sulfonamide is a peripherally selective compound. […] Select compounds were chosen for study to determine penetration into the CNS. Selected compounds were dosed orally at 10 mg/kg in SD rats. Brain and plasma samples were collected at 1, 2, 4, and 24 hours post dose and samples were analyzed by MS (Table 2, below). Since unperfused brains were used and the blood volume in unperfused brains is approximately 4%, a brain to plasma level of ≦0.04 represents no discernible penetration into the CNS.

Results on nine compounds are retold here after patent US9187480B2, “Peripherally restricted diphenyl purine derivatives” (RESEARCH TRIANGLE INSTITUTE, priority 2012, dated 2015).

`NC(=O)C1(c2ccccc2)CCN(c2ncnc3c2nc(-c2ccccc2Cl)n3-c2ccc(Cl)cc2)CC1`: the “Binding Selectivity using CP55940 Displacement” value (from here on “Binding Selectivity”) at CB1 [1] is recorded as 3076.5. The values for the Ki on CB1 [1], on CB2 and on CB1 [2] were 1.79 nM, 5510 nM and 0.28 nM, respectively. The “Ke (nM) at CB1” value at CB1 [3] came to 9 nM. Moreover, the “% MDCK-MDR transport (Apical to Basal)” value with MDCK-MDR is recorded as 5.6 ± 2.4%.

On to `CS(=O)(=O)NCC1CCC(CNc2ncnc3c2nc(-c2ccccc2Cl)n3-c2ccc(Cl)cc2)CC1` (stereo not drawn), for which the “Binding Selectivity” value on CB1 [1] came out at 8.6. Also, the Ki (usually the dissociation constant of the complex between target and ligand, obtained from inhibition or displacement) at CB1 [1] came to 258 nM; on CB2, 2230 nM; at CB1 [2], 44.5 nM. The “Ke (nM) at CB1” value on CB1 [3] was 201.00 nM. The “% MDCK-MDR transport (Apical to Basal)” value with MDCK-MDR is on record as greater than 50%.

As to `NS(=O)(=O)NCC1CCC(CNc2ncnc3c2nc(-c2ccccc2Cl)n3-c2ccc(Cl)cc2)CC1` (stereo not drawn), the “Binding Selectivity” value on CB1 [1] came to 30.2. The Ki on CB1 [1] amounted to 355 nM; on CB2, 10700 nM; at CB1 [2] it was 94.5 nM. Further, the “Ke (nM) at CB1” value at CB1 [3] turned out to be 549.0 nM.

Take `CC(C)(C)OC(=O)NC1(c2ccccc2)CCN(c2ncnc3c2nc(-c2ccccc2Cl)n3-c2ccc(Cl)cc2)CC1`: the “Binding Selectivity” value on CB1 [1] is listed as 1959. Further, the results for the Ki at CB1 [1] and on CB2 were 7.12 nM and 13900 nM, respectively. In addition, the “Ke (nM) at CB1” value on CB1 [3] is on record as 3.93 nM. Also, in the data set with MDCK-MDR, the “% MDCK-MDR transport (Apical to Basal)” value is less than 1%.

For `CC(C)(C)NC(=O)NC1(c2ccccc2)CCN(c2ncnc3c2nc(-c2ccccc2Cl)n3-c2ccc(Cl)cc2)CC1`, at CB1 [1], the “Binding Selectivity” value came to 784 and the Ki stood at 25.5 nM. Moreover, the Ki on CB2 is 20000 nM. Also, the “Ke (nM) at CB1” value at CB1 [3] is 19.17 nM. Besides, in the data set on MDCK-MDR, the “% MDCK-MDR transport (Apical to Basal)” value is less than 1%.

On to `CC(=O)NC1(c2ccccc2)CCN(c2ncnc3c2nc(-c2ccccc2Cl)n3-c2ccc(Cl)cc2)CC1`, for which, on CB1 [1], the “Binding Selectivity” value came out at 121 and the Ki is 6 nM. In addition, at CB2, the inhibitory constant (Ki) amounted to 726 nM. The “Ke (nM) at CB1” value at CB1 [3] turned out to be 10.31 nM. Also, in the data set on MDCK-MDR, the “% MDCK-MDR transport (Apical to Basal)” value was determined as 6%.

Take `CC(C)(C)NC(=O)C1(c2ccccc2)CCN(c2ncnc3c2nc(-c2ccccc2Cl)n3-c2ccc(Cl)cc2)CC1`: at CB1 [1], the “Binding Selectivity” value is recorded as 4902 and the inhibitory constant (Ki) worked out at 4.08 nM. Moreover, the Ki at CB2 came to 20000 nM. In addition, on CB1 [3], the “Ke (nM) at CB1” value was 2.2 nM. Besides, in the data set with MDCK-MDR, the “% MDCK-MDR transport (Apical to Basal)” value is given as less than 1%.

In the case of `O=S1(=O)CCN(c2ncnc3c2nc(-c2ccccc2Cl)n3-c2ccc(Cl)cc2)CC1` [4-[8-(2-Chlorophenyl)-9-(4-chlorophenyl)-9H-purin-6-yl]-1λ^6,4-thiomorpholine-1,1-dione], the “Binding Selectivity” value at CB1 [1] was 26.0. The inhibition constant Ki came to 32.1 nM on CB1 [1], 834 nM on CB2 and 16.8 nM on CB1 [2]. Further, the “Ke (nM) at CB1” value on CB1 [3] is on record as 159.00 nM.

In the case of `CS(=O)(=O)NC1(c2ccccc2)CCN(c2ncnc3c2nc(-c2ccccc2Cl)n3-c2ccc(Cl)cc2)CC1` [N-{1-[8-(2-Chlorophenyl)-9-(4-chlorophenyl)-9H-purin-6-yl]-4-phenylpiperidin-4-yl}methanesulfonamide], on CB1 [1], the “Binding Selectivity” value is recorded as 153 and the inhibition constant Ki came out at 6.21 nM. The Ki on CB2 was 948 nM. In addition, in the data set with MDCK-MDR, the “% MDCK-MDR transport (Apical to Basal)” value is listed as less than 1%. Moreover, in data set [4] (brain and plasma, range over sampling times, read-out: brain to plasma ratios), the Kp lay in the range of 0.05 to 0.11. Besides, the Cmax – broadly, the maximum level reached in the sampled fluid or tissue – in data set [4] (in vivo) was 1650 ng/g.
